Read-outs that look alike come from different tables or passages of the source.
Experiments:
rat hepatocytes = test: Conversion of compound (Id) to compound (I) in rat hepatocytes; format: in vitro ADME; settings: 1 μg/mL, 37° C., 0.25-60 minutes
Procedure: (§1) The cell concentration at incubation was 1×10^6 viable cells/mL. The incubations were performed in glass tubes at 37° C. with a total incubation volume of 3.5 mL and with duplicate incubations for each test item. The 3.5 mL of hepatocyte suspension was equilibrated for 10 minutes in a water bath set to 37° C. where after the incubations were initiated by adding 3.5 μL of a stock solution of the test item in DMSO (Dimethyl sulfoxide) and gently inverting the tubes. The final solvent concentration in the incubations was 0.1% DMSO. Samples of 600 μL were withdrawn from the incubations at the pre-determined time points of 0.25, 5, 15, 30 and 60 minutes after ensuring homogeneity of hepatocyte suspensions. The withdrawn volume was added to 1 mL Nunc cryo tubes on wet ice containing 60 μL of ice-cold ascorbic acid (100 mg/mL) and 30 μL of ice cold 100 mM saccharic acid 1,4-lactone in 0.5 M citric acid. The tubes were mixed and 35 μL of a solution of ice cold 20% formic acid was added. The tubes were mixed thoroughly and stored at −80° C. awaiting analysis.

human hepatocytes = test: Conversion of compound (Id) to compound (I) in human hepatocytes; format: in vitro ADME; settings: 1 μg/mL, 37° C., 0.25-60 minutes
Procedure: as §1

[1] = pKa values / major species of ionization; format: physicochemical
[2] = Conversion of (Id) to (I) in fresh rat blood; format: in vitro ADME; settings: 1 μg/mL, 37° C., 0-60 minutes
Procedure: (§2) Conversion of (Id) in human blood (average of 3 donors) and rat blood (average of 45 donors) to (I) was shown in fresh blood at 37° C. spiked with 1 μg/mL of (Id). (I) was measured at 0, 5, 15, 30 and 60 minutes in isolated plasma. Analysis method and Instrumentation as described in Examples 9 and 10 below in the section “Instrumentation used for analysis of compound (l) from dosing of compounds (Ic) and (Id).”

[3] = PK experiments in Wistar rats, plasma compound (I) after oral dosing of prodrugs; format: in vivo, rat; settings: FIG. 1, doses equal to 287 μg/kg of compound (I)
Procedure: Plasma was placed on water-ice following collection. Final storage at approximately −70° C.
Mobile phase B: Acetonitrile. […] Flow rate 0.5 mL/min.
The rats had unrestricted access to the diet.
Mobile phase B: Acetonitrile+0.2% formic acid. […] Flow rate 0.3 mL/min.
Dosing and blood sampling for compound (Ic): Han Wistar rats were supplied by Envigo, UK. […] The rats received a standard laboratory diet Teklad 2014C. The rats had unrestricted access to the diet.

[4] = Oral dosing of compound (Id) in minipigs; format: in vivo, minipig
rat locomotor activity = test: Rat locomotor activity (hyperactivity) assay, open field, with PK/PD; format: in vivo
Procedure: Mass spectrometer (UPCLC-MS/MS) Waters Acquity I-Class-Waters Xevo TQ-S. Analytical column Acquity HSS T3 C18 50×2.1 mm, 1.8 μm. Mobile phase A: 10 mM NH4—Formate 0.2% formic acid:Acetonitril (95:5). Mobile phase B: 10 mM NH4—Formate 0.2% formic acid:Acetonitril (5:95). Gradient run from 95/5% to 5/95% in 2.40 minutes. Flow rate 0.3 mL/min. MRM detection of test items and the added analytical standards.
Animals for the study were as described in Example 10. Additionally, rats were administered a single dose of apomorphine subcutaneously.
In total, 206 male CD rats (Charles River, Germany) weighing 200-250 grams (165-190 grams upon arrival) were used in the study. Animals were housed at a standard temperature (22±1° C.) and in a light-controlled environment (lights on from 7 am to […]) with ad libitum access to food and water. The experiment described below was performed in accordance with the standard operating procedures of Charles River Discovery Research Services Finland Ltd. and in accordance with the national Animal Experiment Board of Finland (Eläinkoelautakunta, ELLA) authority on animal testing.
The test device is a square Plexiglass-arena (measuring 40×40×40 cm), in which the movement paths of the rats are recorded by an activity monitor (Med. Associates Inc.). Before the test period is initiated, rats are habituated to their test cage for 60 minutes. Upon completion of habituation, animals were treated with either compound or vehicle and placed back into the open field apparatus. The main test parameter measured is ambulatory distance (recorded in 5-minute segments). Overall time of measurement after receiving initial treatment was 360 minutes. Total follow up period in the study was 420 min, including 60 min of habituation.

[5] = Conversion of (Id) to (I) in fresh human blood; format: in vitro ADME; settings: 1 μg/mL, 37° C., 0-60 minutes
Procedure: as §2

human 5-HT2B receptor = target: T1, human 5-HT2B receptor (Homo sapiens, UniProt P41595); test: 5-HT2B agonist activity assay, IP1 production (HTRF) in CHO cells; format: cell-based
T1 construct: host or cells: CHO
Procedure: Evaluation of the agonist activity of compounds (I), (Ia) and (Ib) at the human 5-HT2B receptor was performed by Eurofins/Cerep (France) measuring the compound effects on inositol monophosphate (IP1) production using the HTRF detection method. Briefly, the human 5-HT2B receptor was expressed in transfected CHO cells. The cells were suspended in a buffer containing 10 mM Hepes/NaOH (pH 7.4), 4.2 mM KCl, 146 mM NaCl, 1 mM CaCl2, 0.5 mM MgCl2, 5.5 mM glucose and 50 mM LiCl, then distributed in microplates at a density of 4100 cells/well and incubated for 30 minutes at 37° C. in the presence of buffer (basal control), test compound or reference agonist. For stimulated control measurement, separate assay wells contained 1 μM 5-HT. Following incubation, the cells were lysed and the fluorescence acceptor (fluorophen D2-labeled IP1) and fluorescence donor (anti-IP1 antibody labeled with europium cryptate) were added. After 60 minutes at room temperature, the fluorescence transfer was measured at lambda(Ex) 337 nm and lambda(Em) 620 and 665 nm using a microplate reader (Rubystar, BMG). The IP1 concentration was determined by dividing the signal measured at 665 nm by that measured at 620 nm (ratio). The results were expressed as a percent of the control response to 1 μM 5-HT. […]

[6] = Liu et al., Bioorganic Med. Chem. (2008); rats; cited from earlier work
[7] = man, after oral dosing; cited from earlier work

T1 sequence (P41595 whole entry): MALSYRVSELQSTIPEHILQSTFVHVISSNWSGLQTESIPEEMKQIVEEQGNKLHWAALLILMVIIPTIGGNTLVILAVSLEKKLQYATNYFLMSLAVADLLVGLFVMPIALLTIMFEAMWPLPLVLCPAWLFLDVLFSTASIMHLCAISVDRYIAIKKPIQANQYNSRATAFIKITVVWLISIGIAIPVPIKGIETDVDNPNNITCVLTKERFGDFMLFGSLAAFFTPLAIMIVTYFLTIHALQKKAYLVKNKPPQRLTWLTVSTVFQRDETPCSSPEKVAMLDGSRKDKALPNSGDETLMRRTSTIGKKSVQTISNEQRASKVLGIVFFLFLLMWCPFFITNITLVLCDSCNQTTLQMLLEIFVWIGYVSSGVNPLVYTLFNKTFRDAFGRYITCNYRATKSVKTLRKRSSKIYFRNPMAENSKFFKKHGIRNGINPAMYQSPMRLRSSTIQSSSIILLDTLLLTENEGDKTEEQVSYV

SMILES: CCCN1CCC[C@@H]2Cc3c(ccc(O)c3O[C@@H]3O[C@H](C(=O)O)[C@@H](O)[C@H](O)[C@H]3O)C[C@H]21 [Compound (Id), (2S,3S,4S,5R,6S)-3,4,5-trihydroxy-6-(((4aR,10aR)-7-hydroxy-1-propyl-1,2,3,4,4a,5,10,10a-octahydrobenzo[g]quinolin-6-yl)oxy)tetrahydro-2H-pyran-2-carboxylic acid]
- Conversion to compound (I) (rat hepatocytes): time dependent conversion
- Conversion to compound (I) (human hepatocytes): time dependent conversion
- pKa ([1]; anion / dianion boundary pH, read-out: pKa (third), boundary between major species of ionization): 10.1
- pKa ([1]; cation / zwitterion boundary pH, read-out: pKa (first), boundary between major species of ionization): 2.8
- pKa ([1]; zwitterion / anion boundary pH, read-out: pKa (second), boundary between major species of ionization): 8.8
- Conversion to compound (I) [2]: time dependent conversion
- Plasma profile of compound (I) after oral dosing, in words [3]: slower absorption rate avoiding rapid peak concentrations accompanied by a sustained exposure
- In vivo conversion to compound (I) [4]: In vivo conversion of compound (Id) to compound (I) has also been observed
- Relationship of behavioral effect and plasma concentration (rat locomotor activity; (Id) 100 μg/kg p.o. (FIG. 4), apomorphine 3 mg/kg s.c. (FIG. 5)): correlate with the plasma concentrations of compound (I)
- Duration of locomotor effect, in words (rat locomotor activity; (Id) 10 to 300 μg/kg p.o., recording to the 415-minute time point): lasting until the end of recording
- Total distance travelled, in words (rat locomotor activity; FIG. 3, (Id) 10, 30, 100 or 300 μg/kg p.o., apomorphine 3 mg/kg s.c., pramipexole 0.3 mg/kg s.c., vs vehicle): significantly increased activity
- Conversion to compound (I) [5]: time dependent conversion

SMILES: CCCN1CCC[C@@H]2CC3=C(CCCC3=O)C[C@H]21 [(Ia)]
- 5-HT2B agonist effect at single concentration (human 5-HT2B receptor; @ 30 μM, percent of control response to 1 μM 5-HT): 58% @ 30 μM
- Plasma profile of compound (I) after oral dosing, in words [3]: early and high peak concentrations

SMILES: CCCN1CCC[C@@H]2Cc3c(ccc(OC(=O)C(C)(C)C)c3OC(=O)C(C)(C)C)C[C@H]21 [(Ic)]
- 5-HT2B agonist effect at single concentration (human 5-HT2B receptor; @ 10 μM): −5% @ 10 μM
- Plasma profile of compound (I) after oral dosing, in words [3]: extremely low

SMILES: CCCN1CCC[C@@H]2Cc3c(ccc(O)c3O)C[C@H]21 [Compound (I), (4aR,10aR)-1-Propyl-1,2,3,4,4a,5,10,10a-octahydro-benzo[g]quinoline-6,7-diol]
- Oral bioavailability, in words [6]: low oral bioavailability

SMILES: CCCc1cc2c(s1)CN[C@@H]1CCc3cc(OC(C)=O)c(OC(C)=O)cc3[C@@H]21 [adrogolide]
- Oral bioavailability [7]: ~4%

From US12421271B2, “Solid forms of (2S,3S,4S,5R,6S)-3,4,5-trihydroxy-6-(((4AR, 10AR)-7-hydroxy-1-propyl-1,2,3,4,4A,5,10,10A-octahydrobenzo[g]quinolin-6-yl)oxy)tetrahydro-2H-pyran-2-carboxylic acid” (H. Lundbeck A/S, priority 2019, dated 2025)
